For eleven molecules, IC50 results are on record in US11820766B2, “Monoacylglycerol lipase modulators” (Janssen Pharmaceutica NV, priority 2018, dated 2023).

The target of the assay is T1, human MGL from HeLa cells (Homo sapiens, UniProt Q99685).
T1 construct: combining endogenously expressed MGL from HeLa cells with test compounds; endogenous in cells; host or cells: HeLa cells / cell homogenates
T1 sequence (Q99685 1-303): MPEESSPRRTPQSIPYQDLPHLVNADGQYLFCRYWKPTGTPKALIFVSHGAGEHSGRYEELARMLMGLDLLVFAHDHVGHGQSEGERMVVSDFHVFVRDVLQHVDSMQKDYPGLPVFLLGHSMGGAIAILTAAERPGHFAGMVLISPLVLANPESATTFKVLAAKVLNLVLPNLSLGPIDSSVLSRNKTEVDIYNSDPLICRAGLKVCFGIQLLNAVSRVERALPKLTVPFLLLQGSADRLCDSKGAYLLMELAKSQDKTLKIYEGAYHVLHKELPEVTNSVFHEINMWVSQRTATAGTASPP
In words: In vitro MGL activity assay: [glycerol-1,3-3H]-oleyl glycerol cleavage by MGL from HeLa cells. It counts as biochemical. The note with it: 300 nM [Glycerol-1,3-3H]-oleyl glycerol, one hour incubation. The text has this:
MGL is the predominant hydrolase in HeLa cells/cell homogenates.
Turning to `CNC(=O)c1cccc(C(=O)N2CCc3c(nn(C)c3-c3cc(F)c(F)c(F)c3)[C@@H]2C)c1` [Example 266, 3-[(7S)-2,7-Dimethyl-3-(3,4,5-trifluorophenyl)-5,7-dihydro-4H-pyrazolo[3,4-c]pyridine-6-carbonyl]-N-methyl-benzamide], the half-inhibitory concentration (IC50) (commonly the midpoint of a concentration-inhibition curve) is 0.132 µM. `C[C@H]1c2nn(C)c(-c3cc(F)c(F)c(F)c3)c2CCN1C(=O)c1ccc(-n2ccnc2)cc1` [Example 267, [(7S)-2,7-Dimethyl-3-(3,4,5-trifluorophenyl)-5,7-dihydro-4H-pyrazolo[3,4-c]pyridin-6-yl]-(4-imidazol-1-ylphenyl)methanone] came in with a 50% inhibitory concentration (IC50) of 0.576 µM. Turning to `C[C@H]1c2nn(C)c(-c3cc(F)c(F)c(F)c3)c2CCN1C(=O)c1ccc(-c2cn[nH]c2)cc1` [Example 268, [(7S)-2,7-Dimethyl-3-(3,4,5-trifluorophenyl)-5,7-dihydro-4H-pyrazolo[3,4-c]pyridin-6-yl]-[4-(1H-pyrazol-4-yl)phenyl]methanone], the IC50 is 0.0242 µM. On to `C[C@H]1c2nn(C)c(-c3cc(F)c(F)c(F)c3)c2CCN1C(=O)c1ccc(-c2ccn[nH]2)cc1` [Example 269, [(7S)-2,7-Dimethyl-3-(3,4,5-trifluorophenyl)-5,7-dihydro-4H-pyrazolo[3,4-c]pyridin-6-yl]-[4-(1H-pyrazol-5-yl)phenyl]methanone], for which the IC50 is 0.00892 µM. This IC50 is about 2.7-fold lower than that of the molecule before. As to `C[C@H]1c2nn(C)c(-c3cc(F)c(F)c(F)c3)c2CCN1C(=O)c1cccc(-c2cc[nH]n2)c1` [Example 270, [(7S)-2,7-Dimethyl-3-(3,4,5-trifluorophenyl)-5,7-dihydro-4H-pyrazolo[3,4-c]pyridin-6-yl]-[3-(1H-pyrazol-3-yl)phenyl]methanone], 0.00907 µM corresponded to half-maximal inhibition (IC50). `COc1ccc(C(=O)N2CCc3c(nn(C)c3-c3cc(F)c(F)c(F)c3)[C@@H]2C)cc1-c1ccn(C)n1` [Example 271, [(7S)-2,7-Dimethyl-3-(3,4,5-trifluorophenyl)-5,7-dihydro-4H-pyrazolo[3,4-c]pyridin-6-yl]-[4-methoxy-3-(1-methylpyrazol-3-yl)phenyl]methanone] gave an IC50 of 0.182 µM. In turn, `C[C@H]1c2nn(C)c(-c3cc(F)c(F)c(F)c3)c2CCN1C(=O)c1cccc(-c2cn[nH]c2)c1` [Example 272, [(7S)-2,7-Dimethyl-3-(3,4,5-trifluorophenyl)-5,7-dihydro-4H-pyrazolo[3,4-c]pyridin-6-yl]-[3-(1H-pyrazol-4-yl)phenyl]methanone] displayed an IC50 of 0.0146 µM. As to `C[C@H]1c2nn(C)c(-c3cc(F)c(F)c(F)c3)c2CCN1C(=O)c1cccc(-c2cnn(C)c2)c1` [Example 273, [(7S)-2,7-Dimethyl-3-(3,4,5-trifluorophenyl)-5,7-dihydro-4H-pyrazolo[3,4-c]pyridin-6-yl]-[3-(1-methylpyrazol-4-yl)phenyl]methanone], half-maximal inhibition (IC50) required 0.0931 µM. Regarding `C[C@H]1c2nn(C)c(-c3cc(F)c(F)c(F)c3)c2CCN1C(=O)c1cc(-c2cnn(C)c2)ccc1F` [Example 274, [(7S)-2,7-Dimethyl-3-(3,4,5-trifluorophenyl)-5,7-dihydro-4H-pyrazolo[3,4-c]pyridin-6-yl]-[2-fluoro-5-(1-methylpyrazol-4-yl)phenyl]methanone], half-maximal inhibition (IC50) was put at 0.0137 µM. Molecule `C[C@H]1c2nn(C)c(-c3cc(F)c(F)c(F)c3)c2CCN1C(=O)c1cccc(-n2cc(F)cn2)c1` [Example 275, [(7S)-2,7-Dimethyl-3-(3,4,5-trifluorophenyl)-5,7-dihydro-4H-pyrazolo[3,4-c]pyridin-6-yl]-[3-(4-fluoropyrazol-1-yl)phenyl]methanone] came in with an IC50 of 0.0673 µM. Consider `Cc1ncn(-c2cccc(C(=O)N3CCc4c(nn(C)c4-c4cc(F)c(F)c(F)c4)[C@@H]3C)c2)n1` [Example 276, [(7S)-2,7-Dimethyl-3-(3,4,5-trifluorophenyl)-5,7-dihydro-4H-pyrazolo[3,4-c]pyridin-6-yl]-[3-(3-methyl-1,2,4-triazol-1-yl)phenyl]methanone], for which the IC50 was found to be 0.145 µM. This IC50 lies about 2.2-fold higher than the previous one.
